According to publication PMC3787017, “Relative Contributions of Norepinephrine and Serotonin Transporters to Antinociceptive Synergy between Monoamine Reuptake Inhibitors and Morphine in the Rat Formalin Model” (PLoS ONE, 2013):
Like-named read-outs stand apart in the source and are kept apart here.

Tests used:
[1] = Protein binding in rat plasma, equilibrium dialysis; format: in vitro ADME; settings: equilibrium dialysis 5 hours 37°C, Theravance, Inc., unpublished data
Procedure: (§1) The in vitro unbound fraction of reuptake inhibitors in rat brain homogenates (5 µM) and in rat plasma protein (1 µM) was evaluated using equilibrium dialysis using the HT-Dialysis device (Gayles-Ferry, CT). Brain homogenate or plasma was spiked with test compounds and dialyzed against blank PBS for 5 hours at 37°C. The matrices from both sides of the dialysis membranes were equalized and extracted with acetonitrile. Unbound fractions for each compound were calculated as the ratio of peak areas from the PBS side to peak areas from the tissue or plasma side. Peak areas were corrected for dilution of the tissue made prior to spiking compound. Quantification was via LC/MS/MS.

[2] = Binding in rat brain homogenates, equilibrium dialysis; format: in vitro ADME; settings: brain homogenate, equilibrium dialysis 5 hours 37°C, Theravance, Inc., unpublished data
Procedure: as §1

rat formalin model [3] = test system: rat formalin model
[4] = Plasma and brain unbound concentrations by LC/MS/MS; settings: rat, 75 min post-dosing
Procedure: Plasma and brain concentrations of reuptake inhibitors were determined by LC/MS/MS. Samples (10–20 µL) were injected in a Hypurity C18 column (50×2.1 mm; 3 µM) with a flow rate of 0.5 mL/min. […] Various gradient elutions were used and the mass spectrometers (Sciex API5000 and API4000; Applied Biosystems, Foster City, CA) were operated in positive ion multiple reaction monitoring mode.
For the pharmacokinetic and bioanalytical analyses, free plasma and free brain concentrations were calculated using the in vitro unbound fractions in rat plasma and brain homogenates, respectively.

SERT [5] = target: T1, SERT (Rattus norvegicus, UniProt P31652); test: in vivo; settings: ip, read-out: SERT occupancy ex vivo
Procedure: (§2) Ex vivo occupancy studies were performed similarly to those described previously [31]. At a single time point at the conclusion of phase 2A (75 min post-dose), a 5 mm^2 piece of frontal cortex was dissected, frozen rapidly, and stored at −80°C until use. Cortical crude homogenates were prepared and the initial rates (vi(vehicle) or vi, respectively) of [^3H]-citalopram (SERT) or [^3H]-nisoxetine (NET) binding determined over a 3-min time course. The % NET or SERT transporter occupancy for compound-dosed animals was calculated using the following equation: 100*(1−vi)/average vi(vehicle).

NET = NET (Rattus norvegicus, UniProt Q63380); test: in vivo; settings: ip, read-out: NET occupancy ex vivo
Procedure: as §2

SERT [6] = target: T1, SERT; settings: summary over 3 and 10 mg/kg IP (discussion)
Procedure: as §2

rat formalin model [7] = test: animal or person; settings: read-out: ED50, antinociception, drug alone
SERT [8] = settings: therapeutic dose of 60 mg; cited from earlier work
rat RotaRod test = settings: morphine 3 mg/kg SC alone, 60 min post-dose; statistically significant
[9] = 10 mg/kg IP, drug alone, mean ± SEM

T1 sequence (P31652 whole entry): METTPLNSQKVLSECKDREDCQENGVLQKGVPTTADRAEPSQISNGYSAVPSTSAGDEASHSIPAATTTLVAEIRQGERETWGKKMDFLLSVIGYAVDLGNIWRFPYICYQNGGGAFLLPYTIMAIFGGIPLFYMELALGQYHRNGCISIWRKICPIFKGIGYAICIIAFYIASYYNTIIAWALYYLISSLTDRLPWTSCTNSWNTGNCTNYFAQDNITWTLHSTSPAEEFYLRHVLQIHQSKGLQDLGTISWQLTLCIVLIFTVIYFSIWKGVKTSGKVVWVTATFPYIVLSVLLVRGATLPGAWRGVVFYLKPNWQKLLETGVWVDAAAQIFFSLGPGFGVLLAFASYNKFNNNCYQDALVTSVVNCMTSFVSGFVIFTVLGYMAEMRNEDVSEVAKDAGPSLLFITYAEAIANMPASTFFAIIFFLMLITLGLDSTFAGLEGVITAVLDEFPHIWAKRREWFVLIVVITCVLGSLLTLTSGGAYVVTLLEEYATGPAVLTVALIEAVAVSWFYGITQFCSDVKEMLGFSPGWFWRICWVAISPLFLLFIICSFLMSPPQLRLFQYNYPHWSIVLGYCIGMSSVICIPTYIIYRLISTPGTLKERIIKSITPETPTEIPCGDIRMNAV
Chain of NET (Q63380 1-617): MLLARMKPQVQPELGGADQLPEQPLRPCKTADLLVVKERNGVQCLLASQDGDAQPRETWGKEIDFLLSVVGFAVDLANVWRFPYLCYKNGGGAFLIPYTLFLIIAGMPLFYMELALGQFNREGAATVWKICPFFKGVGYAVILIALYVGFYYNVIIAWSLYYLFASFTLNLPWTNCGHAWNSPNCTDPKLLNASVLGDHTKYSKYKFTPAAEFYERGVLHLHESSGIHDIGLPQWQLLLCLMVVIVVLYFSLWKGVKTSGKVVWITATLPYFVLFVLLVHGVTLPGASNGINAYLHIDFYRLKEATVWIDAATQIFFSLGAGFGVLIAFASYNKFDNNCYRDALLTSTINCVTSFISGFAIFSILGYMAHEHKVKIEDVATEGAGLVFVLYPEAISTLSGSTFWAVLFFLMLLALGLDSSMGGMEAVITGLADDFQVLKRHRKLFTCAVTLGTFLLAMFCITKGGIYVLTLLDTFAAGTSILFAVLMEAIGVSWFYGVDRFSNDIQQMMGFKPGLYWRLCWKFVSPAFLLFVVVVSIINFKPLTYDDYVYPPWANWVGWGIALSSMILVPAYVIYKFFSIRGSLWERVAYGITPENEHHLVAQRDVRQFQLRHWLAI

For `CNCCC(Oc1ccc(C(F)(F)F)cc1)c1ccccc1` (stereo not shown) [fluoxetine], the fraction unbound at 5 h, 1 µM [1] was 0.067, the fraction unbound at 5 h, 5 µM [2] was 0.0045 and the inhibition of flinching (rat formalin model [3]; [9]) was 9±4%.

`CCOc1ccccc1O[C@@H](c1ccccc1)[C@@H]1CNCCO1` [esreboxetine] gave a concentration at 75 min ([4]; brain, intraperitoneal, 10 mg/kg, [Brain]unbound, esreboxetine 10 mg/kg, − fluoxetine − morphine) of 20.4 ± 14.4 ng/g, a concentration at 75 min ([4]; brain, intraperitoneal, [Brain]unbound, esreboxetine 10 mg/kg + fluoxetine 1 + morphine 1 mg/kg) of 25 ± 5.8 ng/g and a concentration at 75 min ([4]; brain, intraperitoneal, [Brain]unbound, esreboxetine 10 mg/kg + morphine 1 mg/kg) of 12.7 ± 9.9 ng/g. For the same compound, the concentration at 75 min ([4]; plasma, intraperitoneal, 10 mg/kg, [Plasma]unbound, esreboxetine 10 mg/kg, − fluoxetine − morphine) was 33.4 ± 12.2 ng/mL, the concentration at 75 min ([4]; plasma, intraperitoneal, [Plasma]unbound, esreboxetine 10 mg/kg + fluoxetine 1 + morphine 1 mg/kg) was 31.2 ± 8.6 ng/mL and the concentration at 75 min ([4]; plasma, intraperitoneal, [Plasma]unbound, esreboxetine 10 mg/kg + morphine 1 mg/kg) was 21 ± 17.7 ng/mL. The receptor occupancy at 10 mg/kg (SERT [5]) was 3 ± 5%, the receptor occupancy at 10 mg/kg (NET) was 82 ± 5% and the inhibition of flinching (rat formalin model [3]; rat, in vivo) was 17±9%.

In the case of `CNCC[C@@H](Oc1ccccc1C)c1ccccc1` [atomoxetine], the “SERT occupancy at doses that exhibited synergy with morphine” value (SERT [6]) is reported as 35 to 64%, the fraction unbound at 5 h, 1 µM [1] is reported as 0.18 and the concentration at 75 min ([4]; in vivo, 10 mg/kg, [Brain]unbound, atomoxetine 10 mg/kg, − morphine, mean ± SD) is reported as 58.2 ± 10.9 ng/g. For the same compound, the concentration at 75 min ([4]; in vivo, 10 mg/kg, [Plasma]unbound, atomoxetine 10 mg/kg, − morphine, mean ± SD) was 50.9 ± 5.8 ng/mL, the concentration at 75 min ([4]; in vivo, [Brain]unbound, atomoxetine 10 mg/kg + morphine 3 mg/kg) was 52.6 ± 14.4 ng/g and the concentration at 75 min ([4]; in vivo, [Plasma]unbound, atomoxetine 10 mg/kg + morphine 3 mg/kg) was 57.9 ± 12.5 ng/mL. It also gave a receptor occupancy at 3 mg/kg (SERT [5]) of 35 ± 9%, a receptor occupancy at 10 mg/kg (SERT [5]) of 64 ± 5% and a fraction unbound at 5 h, 5 µM [2] of 0.021. For the same compound, the ED50 (rat formalin model [7]) was 27.8 mg/kg, the inhibition of flinching (rat formalin model [3]; 3 mg/kg IP, drug alone, mean ± SEM) was 4±11% and the inhibition of flinching (rat formalin model [3]; [9]) was 19±6%.

For `C=CCN1CC[C@]23c4c5ccc(O)c4O[C@H]2C(=O)CC[C@@]3(O)[C@H]1C5` [naloxone], the “effect on atomoxetine-induced antinociception” value (rat formalin model [3]; naloxone 5 mg/kg IP, atomoxetine 10 and 30 mg/kg IP) was “failed to attenuate” and the “effect on morphine-induced antinociception” value (rat formalin model [3]; naloxone 5 mg/kg IP, morphine 3 mg/kg, p<0.001) was “effectively blocked”.

`CNCC[C@H](Oc1cccc2ccccc12)c1cccs1` [duloxetine] showed a fraction unbound at 5 h, 1 µM [1] of 0.031, a concentration at 75 min ([4]; brain, intraperitoneal, 5 mg/kg, [Brain]unbound, duloxetine 5 mg/kg, − ondansetron − morphine) of 13 ± 1.5 ng/g and a concentration at 75 min ([4]; brain, intraperitoneal, [Brain]unbound, duloxetine 5 mg/kg + ondansetron 3 + morphine 1 mg/kg) of 16.5 ± 4.1 ng/g. It also gave a concentration at 75 min ([4]; plasma, intraperitoneal, 5 mg/kg, [Plasma]unbound, duloxetine 5 mg/kg, − ondansetron − morphine) of 4.98 ± 1.4 ng/mL, a concentration at 75 min ([4]; plasma, intraperitoneal, [Plasma]unbound, duloxetine 5 mg/kg + ondansetron 3 + morphine 1 mg/kg) of 4.55 ± 0.7 ng/mL and a fraction unbound at 5 h, 5 µM [2] of 0.007. For the same compound, the ED50 (rat formalin model [7]) was 10.9 mg/kg, the inhibition of flinching (rat formalin model [3]; 5 mg/kg IP, drug alone, mean ± SEM) was 19±12% and the “interaction with morphine at higher doses” value (rat formalin model [3]; higher doses of duloxetine, antinociceptive in the absence of morphine, data not shown) was “exhibited additivity with morphine”. For the same compound, the “occupancy of SERT by positron emission tomography” value (SERT [8]) was “near-maximal occupancy”.

In the case of `Cc1nccn1CC1CCc2c(c3ccccc3n2C)C1=O` (stereo not shown) [ondansetron], the “antinociceptive activity, alone” value (rat formalin model [3]; rat, in vivo) is reported as “did not exhibit antinociceptive activity”, the “effect on antinociceptive response to duloxetine and morphine” value (rat formalin model [3]; rat, in vivo) is reported as “potentiated the antinociceptive response” and the “effect on antinociceptive response to fluoxetine and morphine” value (rat formalin model [3]; rat, in vivo) is reported as “failed to potentiate the antinociceptive response”.

For `CN1CC[C@]23c4c5ccc(O)c4O[C@H]2[C@@H](O)C=C[C@H]3[C@H]1C5` [morphine], the “reduction in walking time” value (rat RotaRod test) was 65±12%, the ED50 (rat formalin model [7]) was 2.3 mg/kg and the inhibition of flinching (rat formalin model [3]; 1 mg/kg SC, alone, mean ± SEM) was 18±5%. For the same compound, the “inhibition of flinching (decrease in nociceptive behavior)” value (rat formalin model [3]; 3 mg/kg SC, alone, mean ± SEM) was 77%±6.
